Data on 17 molecules can be found in patent US7598260B2, “CDK-inhibitory pyrimidines, their production and use as pharmaceutical agents” (Bayer Schering Pharma Aktiengesellschaft, priority 2001, dated 2009).

Where two headings read alike, the source gives them in different places.

For one data set, the target named is T1, CDK2/CycE (Homo sapiens, UniProt P24941).
T1 construct: GST; purchased Dr. Dieter Marmé, Klinik für Tumorbiologie, Freiburg; host or cells: baculovirus-infected Sf9 insect cells
The data set can be described thus: CDK2/CycE kinase assay (enzyme test). Type of data set: biochemical. Conditions: read-out: Inhibition IC50 [nM] CDK2/CycE. As to the method: Recombinant CDK2- and CycE-GST-fusion proteins, purified from baculovirus-infected insect cells (Sf9), are obtained by Dr. Dieter Marmé, Klinik für Tumorbiologie [Clinic for Tumor Biology], Freiburg. Histone IIIS, which is used as a kinase substrate, is purchased by the Sigma Company.
The reaction was is stopped by adding EDTA solution (250 mmol, pH 8.0, 14 μl/measuring point).
From each reaction batch, 10 μl applied to P30 filter strips (Wallac Company), and non-incorporated ^33P-ATP is removed by subjecting the filter strips to three washing cycles for 10 minutes each in 0.5% phosphoric acid. After the filter strips are dried for one hour at 70° C., the filter were are covered with scintillator strips (MeltiLex™ A, Wallac Company) and baked for one hour at 90° C. The amount of incorporated ^33P (substrate phosphorylation) is determined by scintillation measurement in a gamma-radiation measuring device (Wallac).

In another data set the test system is MCF-7 cells. The data set can be described thus: Proliferation assay, crystal violet staining (cell test), MCF-7. Conditions: Homo sapiens. Type of data set: cell-based. On the procedure: (§1) Cultivated human tumor cells (as indicated) are flattened out at a density of 5000 cells/measuring point in a 96-hole multititer plate in 200 μl of the corresponding growth medium. After 24 hours, the cells of one plate (zero-point plate) are colored with crystal violet (see below), while the medium of the other plates is replaced by fresh culture medium (200 μl), to which the test substances are added at various concentrations (0 μm, as well as in the range of 0.01-30 μm; the final concentration of the solvent dimethyl sulfoxide is 0.5%). The cells are incubated for 4 days in the presence of test substances. The cell proliferation is determined by coloring the cells with crystal violet: the cells are fixed by adding 20 μl/measuring point of a 11% glutaric aldehyde solution for 15 minutes at room temperature. After three washing cycles of the fixed cells with water, the plates are dried at room temperature. The cells are colored by adding 100 μl/measuring point of a 0.1% crystal violet solution (pH is set at 3 by adding acetic acid). After three washing cycles of the colored cells with water, the plates are dried at room temperature. The dye is dissolved by adding 100 μl/measuring point of a 10% acetic acid solution. The extinction is determined by photometry at a wavelength of 595 nm. The change of cell growth, in percent, is calculated by standardization of the measured values to the extinction values of the zero-point plate (=0%) and the extinction of the untreated (0 μm) cells (=100%).

Data set [1] deals with human tumor cells (as indicated). In words: Proliferation assay, crystal violet staining, other human tumor cells as indicated in the tables. In kind it is cell-based. Conditions: 4 days incubation. On the procedure:
as §1

Data set [2] is described as follows: Solubility (Löslichkeit, g/l). Type of data set: physicochemical. Conditions: for Löslichkeit: comparison with known compounds.
Setting [3] is: 96 h, MCF7 cells, 4 days incubation, read-out: Proliferation IC50 [μM] MCF7.
The mark [4] stands for this setting: NCI-H460, 96 h, H460 cells, read-out: Proliferation IC50 [μM] H460.
Setting [5] is: DU-145, 96 h, DU145 cells, read-out: Proliferation IC50 [μM] DU145.
Setting [6] is: HCT-116, 96 h, HCT116 cells, read-out: Proliferation IC50 [μM] HCT116.
The mark [7] stands for this setting: MCF7, MCF-7 cells, comparison with known compounds, read-out: MCF-7 IC50.

As for `C#CCOc1nc(Nc2ccc(O)cc2)ncc1Br` [Example 6, 4-[[5-Bromo-4-(2-propynyloxy)-2-pyrimidinyl]amino]-phenol], the IC50 amounted to 70 nM at CDK2/CycE, 4 µM with MCF-7 cells (setting [3]) and 6 µM in data set [1] (setting [4]). Moreover, the “Sw” value in data set [2] worked out at 0.008 g/L.
On to `COC[C@H](C)Nc1nc(Nc2ccc(S(N)(=O)=O)cc2)ncc1Br` [Example 7], for which the IC50 on CDK2/CycE turned out to be 6 nM; with MCF-7 cells (setting [3]), 0.7 µM; in data set [1] (setting [5]) it was 0.5 µM; in data set [1] (setting [6]) it was 1.2 µM; in data set [1] (setting [4]), 1.5 µM. In addition, the “Sw” value in data set [2] turned out to be 0.028 g/L.
As for `NS(=O)(=O)c1ccc(Nc2ncc(Br)c(NC(CO)CO)n2)cc1` [Example 9], the IC50 on CDK2/CycE amounted to 7 nM; in the data set with MCF-7 cells (setting [3]), 0.9 µM; in the data set on MCF-7 cells (setting [7]) it was 0.9 µM; in data set [1] (setting [5]) it was 3 µM; in data set [1] (setting [6]), 3 µM. Moreover, the “Löslichkeit” value in data set [2] stood at 0.009 g/L.
Turning to `C#CCOc1nc(Nc2ccc(C(C)=O)cc2)ncc1Br` [Example 22, 1-[4-[(5-Bromo-4-(2-propynyloxy)-2-pyrimidinyl)amino]phenyl]-ethanone], the IC50 was 40 nM at CDK2/CycE; 1.2 µM in the data set with MCF-7 cells (setting [3]); 1.5 µM in data set [1] (setting [5]); 1.5 µM in data set [1] (setting [6]); 1.5 µM in data set [1] (setting [4]). In addition, in data set [2], the “Sw” value came out at 0.003 g/L.
`C#CCNc1nc(Nc2ccc([S+](C)[O-])cc2)ncc1Br` (stereo not drawn) [Example 25]: the IC50 on CDK2/CycE was found to be 70 nM; in the data set on MCF-7 cells (setting [3]) it was 1.2 µM; in data set [1] (setting [5]) it was 1.2 µM; in data set [1] (setting [6]) it was 1.1 µM; in data set [1] (setting [4]), 1.5 µM. Further, the “Sw” value in data set [2] amounted to 0.017 g/L.
In the case of `C#CCNc1nc(Nc2cccc(S(N)(=O)=O)c2)ncc1Br` [Example 36], the IC50 worked out at 30 nM at CDK2/CycE; 0.4 µM in the data set on MCF-7 cells (setting [3]); 0.6 µM in data set [1] (setting [5]); 0.5 µM in data set [1] (setting [6]); 0.6 µM in data set [1] (setting [4]). For the same molecule, the “Sw” value in data set [2] was determined as 0.018 g/L.
In the case of `C#CCNc1nc(Nc2ccc3[nH]ncc3c2)ncc1Br` [Example 37, N-[5-Bromo-4-(2-propynylamino)-2-pyrimidinyl]-indazol-5-amine], the results for the IC50 on CDK2/CycE and in the data set on MCF-7 cells (setting [3]) were 70 nM and 4 µM, respectively. The “Sw” value in data set [2] stood at 0.006 g/L.
On to `C#CCOc1nc(Nc2ccc(OCC3CO3)cc2)ncc1Br` (stereo not drawn) [Example 40], for which the IC50 came out at 20 nM at CDK2/CycE; 1 µM with MCF-7 cells (setting [3]); 9 µM in data set [1] (setting [5]); 3 µM in data set [1] (setting [6]); 3 µM in data set [1] (setting [4]). The “Sw” value in data set [2] was determined as 0.002 g/L.
In the case of `C#CCNc1nc(Nc2ccc(S(N)(=O)=O)cc2)ncc1Cl` [Example 44], the IC50 stood at 8 nM on CDK2/CycE; 1.2 µM with MCF-7 cells (setting [3]); 0.3 µM in data set [1] (setting [5]); 0.4 µM in data set [1] (setting [6]); 0.4 µM in data set [1] (setting [4]). Further, the “Sw” value in data set [2] was 0.005 g/L.
For the molecule `CCC(Nc1nc(Nc2ccc(S(N)(=O)=O)cc2)ncc1Br)C(=O)OC` (stereo not drawn) [Example 45], the IC50 was found to be 10 nM on CDK2/CycE; 2 µM in the data set with MCF-7 cells (setting [3]); 0.5 µM in data set [1] (setting [5]); 1.2 µM in data set [1] (setting [6]); 1.7 µM in data set [1] (setting [4]). In data set [2], the “Sw” value was 0.0094 g/L.
As to `NS(=O)(=O)c1ccc(Nc2ncc(Br)c(NCC3CC3)n2)cc1` [Example 46], the IC50 at CDK2/CycE was 7 nM; with MCF-7 cells (setting [3]), 2 µM. Besides, the “Sw” value in data set [2] is 0.0069 g/L.
As to `CC(C)[C@H](CO)Nc1nc(Nc2ccc(S(=O)(=O)NCCO)cc2)ncc1Br` [Example 48], the IC50 amounted to 4 nM on CDK2/CycE; 0.2 µM with MCF-7 cells (setting [3]); 0.2 µM with MCF-7 cells (setting [7]); 0.3 µM in data set [1] (setting [5]); 0.4 µM in data set [1] (setting [6]); 1 µM in data set [1] (setting [4]). Besides, the “Sw” value in data set [2] turned out to be 0.042 g/L. For the same molecule, in data set [2], the “Löslichkeit” value turned out to be 0.042 g/L.
On to `NS(=O)(=O)c1ccc(Nc2ncc(Br)c(NCCCC(=O)O)n2)cc1` [Example 49], for which the IC50 was 50 nM at CDK2/CycE and > 10 µM in the data set with MCF-7 cells (setting [3]). The “Sw” value in data set [2] amounted to 0.044 g/L.
Regarding `CC(=O)c1ccc(Nc2ncc(Br)c(NCC3CC3)n2)cc1` [Example 52], the IC50 was found to be 200 nM at CDK2/CycE; 0.2 µM in the data set on MCF-7 cells (setting [3]); 2 µM in data set [1] (setting [5]); 1.2 µM in data set [1] (setting [6]); 1.6 µM in data set [1] (setting [4]). In data set [2], the “Sw” value was found to be 0.0005 g/L.
As to `CC(=O)c1ccc(Nc2ncc(Br)c(N[C@H](CO)C(C)C)n2)cc1` [Example 53], the IC50 came out at 300 nM at CDK2/CycE and 1.6 µM in the data set on MCF-7 cells (setting [3]). Also, the “Sw” value in data set [2] came out at 0.026 g/L.
Turning to `CC(=O)c1ccc(Nc2ncc(Br)c(N[C@@H](CO)C(C)C)n2)cc1` [Example 56], the IC50 at CDK2/CycE came to 80 nM; with MCF-7 cells (setting [3]), 4 µM. For the same molecule, the “Sw” value in data set [2] stood at 0.023 g/L.
In the case of `CC(=O)c1ccc(Nc2ncc(Br)c(NCCc3c[nH]cn3)n2)cc1` [Example 87], the results for the IC50 at CDK2/CycE and in the data set with MCF-7 cells (setting [3]) were 250 nM and 0.8 µM, respectively. Besides, the “Sw” value in data set [2] was determined as 0.003 g/L.
